PMC7413254 (Nature Communications, 2020)

Key:
PfCRT^Ecu1110 = PfCRT^Ecu1110 (Plasmodium falciparum, UniProt Q9N623, A220S/I356L/K76T/N326D); assay: cell-based; assay type: cell-based; conditions: PfCRTEcu1110; mean ± SEM, n = 5; SEM
In short: (§1)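 Transport measured in Xenopus oocytes expressing the transporters, 1.5 h at 27.5 °C in ND96 pH 5.5 unless noted. For trans-stimulation, VF-6 injected in 25 nL ND96 at pH 5.0–7.0 or Na^+-free (choline) buffer; intracellular levels based on ~400 nL oocyte volume. Ten oocytes per treatment, ≥4 experiments.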

PfCRT^3D7 = PfCRT^3D7 (Plasmodium falciparum, UniProt Q8IBZ9); assay: cell-based; assay type: cell-based; conditions: for [3H]CQ transport, PfCRT3D7 (% PfCRT3D7 control): trans-stimulation, solute 45 mM injected (estimated intracellular)
PfCRT^3D7, sequence (Q8IBZ9 59-398): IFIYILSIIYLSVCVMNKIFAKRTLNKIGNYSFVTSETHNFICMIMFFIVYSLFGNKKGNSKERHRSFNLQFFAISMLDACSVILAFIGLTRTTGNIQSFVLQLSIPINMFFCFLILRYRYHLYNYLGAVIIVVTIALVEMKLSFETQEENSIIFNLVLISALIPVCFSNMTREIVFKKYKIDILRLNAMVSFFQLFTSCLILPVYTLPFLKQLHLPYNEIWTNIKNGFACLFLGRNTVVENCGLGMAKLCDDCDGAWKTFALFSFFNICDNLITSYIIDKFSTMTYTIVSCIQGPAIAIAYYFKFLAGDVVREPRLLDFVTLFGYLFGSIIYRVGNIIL
In short: as §1

PfNT1 = molecular target: T1, PfNT1 (Plasmodium falciparum, UniProt Q8IDM6); assay: cell-based; assay type: cell-based; conditions: trans-stimulation, solute 45 mM injected (estimated intracellular)
T1 construct: expressed in transfected cells; host or cells: Xenopus laevis oocytes (stage V-VI), cRNA-injected
T1 sequence (Q8IDM6 whole entry): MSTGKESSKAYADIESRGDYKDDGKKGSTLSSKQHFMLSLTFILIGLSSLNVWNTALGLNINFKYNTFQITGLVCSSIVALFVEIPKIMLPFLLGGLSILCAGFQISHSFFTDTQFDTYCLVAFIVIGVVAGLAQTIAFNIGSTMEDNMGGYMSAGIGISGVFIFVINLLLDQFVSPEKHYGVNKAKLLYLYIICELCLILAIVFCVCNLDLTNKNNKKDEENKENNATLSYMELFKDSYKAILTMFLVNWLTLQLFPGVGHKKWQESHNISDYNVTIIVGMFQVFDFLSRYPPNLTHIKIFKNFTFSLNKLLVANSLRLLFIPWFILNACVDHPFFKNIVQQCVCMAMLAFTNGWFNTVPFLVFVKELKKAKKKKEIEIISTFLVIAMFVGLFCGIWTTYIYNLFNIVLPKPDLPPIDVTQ
In short: as §1

PfCRT^Dd2 [1] = molecular target: T2, PfCRT^Dd2 (Plasmodium falciparum, UniProt Q9N623, A220S/I356T/K76T/M74I/N326S/N75E/Q271E/R371I); assay: cell-based; assay type: cell-based; conditions: PfCRTDd2; mean ± SEM, n = 5; SEM
T2 sequence (Q9N623 whole entry A220S/I356T/K76T/M74I/N326S/N75E/Q271E/R371I): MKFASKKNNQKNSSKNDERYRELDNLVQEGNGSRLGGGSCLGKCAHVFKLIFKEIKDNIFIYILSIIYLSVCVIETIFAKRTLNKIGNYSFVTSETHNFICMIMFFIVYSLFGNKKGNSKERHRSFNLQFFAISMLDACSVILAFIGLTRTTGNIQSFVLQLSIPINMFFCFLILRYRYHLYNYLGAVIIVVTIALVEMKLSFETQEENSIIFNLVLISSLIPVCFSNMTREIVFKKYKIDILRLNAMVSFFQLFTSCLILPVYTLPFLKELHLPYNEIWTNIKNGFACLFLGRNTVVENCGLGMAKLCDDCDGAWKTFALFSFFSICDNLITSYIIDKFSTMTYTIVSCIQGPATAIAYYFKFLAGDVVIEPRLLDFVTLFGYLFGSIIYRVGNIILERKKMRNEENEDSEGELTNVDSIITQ
In short: as §1

PfCRT^Dd2 [2] = molecular target: T2, PfCRT^Dd2; assay: [3H]CQ uptake into Xenopus oocytes, cis-inhibition by unlabelled solute; assay type: cell-based; conditions: PfCRTEcu1110 and PfCRTDd2
In short: (§2)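 Assay buffer ND96 (10 mM MES, 10 mM Tris-base) held at pH 5.5 to mimic vacuole lumen; uptake measured inward from this acidic medium over 1.5 h at 27.5 °C.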

non-expressing oocytes = assay: cells; assay type: cell-based, Xenopus laevis
In short: as §2

PfCRT^Ecu1110, sequence (Q9N623 whole entry A220S/I356L/K76T/N326D): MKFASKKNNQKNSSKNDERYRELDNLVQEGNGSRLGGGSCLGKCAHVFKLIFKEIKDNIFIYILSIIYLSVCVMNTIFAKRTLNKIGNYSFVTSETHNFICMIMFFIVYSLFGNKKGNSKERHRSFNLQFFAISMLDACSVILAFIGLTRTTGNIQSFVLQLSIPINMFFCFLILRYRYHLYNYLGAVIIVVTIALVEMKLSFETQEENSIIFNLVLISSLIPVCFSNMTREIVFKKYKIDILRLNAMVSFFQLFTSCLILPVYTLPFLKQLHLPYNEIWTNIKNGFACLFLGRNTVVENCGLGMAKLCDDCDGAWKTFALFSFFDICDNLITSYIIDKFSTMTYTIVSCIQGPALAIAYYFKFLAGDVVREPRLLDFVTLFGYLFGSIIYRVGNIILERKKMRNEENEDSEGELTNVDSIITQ

In the case of `CC(C)(C)NC(=O)[C@@H]1C[C@@H]2CCCC[C@@H]2CN1C[C@@H](O)[C@H](Cc1ccccc1)NC(=O)[C@H](CC(N)=O)NC(=O)c1ccc2ccccc2n1` [Saquinavir, saquinavir, reference compound], the “App Vmax for the trans-stimulatory effect of the peptide mimic on [3H]CQ transport” value (“App Vmax” below) (PfCRT^Ecu1110) is reported as 1.6 ±0.2 pmol/oocyte/h, the “App Vmax” value (PfCRT^3D7; PfCRT3D7, mean ± SEM, n = 5, SEM) is reported as 2.2 ±0.5 pmol/oocyte/h and the “Trans-stimulation of [3H]CQ transport via PfCRT (in words)” value (PfCRT^3D7; PfCRT isoforms as stated in the sentence) is reported as “trans-stimulated”. The “[3H]CQ transport, PfCRT3D7 (% PfCRT3D7 control)” value (PfCRT^3D7; Experiment 1) was 157.43 % PfCRT3D7 control, the “[3H]CQ transport, PfCRT3D7 (% PfCRT3D7 control)” value (PfCRT^3D7; Experiment 2) was 162.15 % PfCRT3D7 control and the “[3H]CQ transport, PfCRT3D7 (% PfCRT3D7 control)” value (PfCRT^3D7; Experiment 3) was 143.46 % PfCRT3D7 control. For the same compound, the “[3H]CQ transport, PfCRT3D7 (% PfCRT3D7 control)” value (PfCRT^3D7; Experiment 4) was 158.34 % PfCRT3D7 control, the “[3H]CQ transport, PfNT1 (% PfCRTDd2 control)” value (PfNT1; Experiment 1) was 2.62 % PfCRTDd2 control and the “[3H]CQ transport, PfNT1 (% PfCRTDd2 control)” value (PfNT1; Experiment 2) was 2.47 % PfCRTDd2 control. The “[3H]CQ transport, PfNT1 (% PfCRTDd2 control)” value (PfNT1; Experiment 3) was 2.54 % PfCRTDd2 control, the “[3H]CQ transport, PfNT1 (% PfCRTDd2 control)” value (PfNT1; Experiment 4) was 2.32 % PfCRTDd2 control and the “App Vmax” value (PfCRT^Dd2 [1]) was 0.8 ±0.05 pmol/oocyte/h. For the same compound, the “Cis-inhibition of [3H]CQ transport (in words)” value (PfCRT^Dd2 [2]) was “cis-inhibited”.

In the case of `CCN(CC)CCCC(C)Nc1ccnc2cc(Cl)ccc12` (stereo not shown) [CQ, chloroquine, reference compound], the “[3H]CQ transport, non-expressing oocytes” value (non-expressing oocytes; 0 mM Ca2+, Experiment 1) is reported as 3.74 % PfCRTDd2 control, the “[3H]CQ transport, non-expressing oocytes” value (non-expressing oocytes; 0 mM Ca2+, Experiment 2) is reported as 3.63 % PfCRTDd2 control and the “[3H]CQ transport, non-expressing oocytes” value (non-expressing oocytes; 0 mM Ca2+, Experiment 3) is reported as 4.25 % PfCRTDd2 control. The “[3H]CQ transport, non-expressing oocytes” value (non-expressing oocytes; 0 mM Ca2+, Experiment 4) was 3.26 % PfCRTDd2 control, the “[3H]CQ transport, non-expressing oocytes” value (non-expressing oocytes; 0 mM Cl-, Experiment 1) was 4.15 % PfCRTDd2 control and the “[3H]CQ transport, non-expressing oocytes” value (non-expressing oocytes; 0 mM Cl-, Experiment 2) was 3.26 % PfCRTDd2 control. For the same compound, the “[3H]CQ transport, non-expressing oocytes” value (non-expressing oocytes; 0 mM Cl-, Experiment 3) was 3.11 % PfCRTDd2 control, the “[3H]CQ transport, non-expressing oocytes” value (non-expressing oocytes; 0 mM Cl-, Experiment 4) was 3.85 % PfCRTDd2 control and the “[3H]CQ transport, non-expressing oocytes” value (non-expressing oocytes; 0 mM Na+, Experiment 1) was 3.84 % PfCRTDd2 control. The “[3H]CQ transport, non-expressing oocytes” value (non-expressing oocytes; 0 mM Na+, Experiment 2) was 3.27 % PfCRTDd2 control, the “[3H]CQ transport, non-expressing oocytes” value (non-expressing oocytes; 0 mM Na+, Experiment 3) was 3.36 % PfCRTDd2 control and the “[3H]CQ transport, non-expressing oocytes” value (non-expressing oocytes; 0 mM Na+, Experiment 4) was 3.51 % PfCRTDd2 control. For the same compound, the “[3H]CQ transport, non-expressing oocytes” value (non-expressing oocytes; 1 mM Ca2+, Experiment 1) was 3.79 % PfCRTDd2 control, the “[3H]CQ transport, non-expressing oocytes” value (non-expressing oocytes; 1 mM Ca2+, Experiment 2) was 4.21 % PfCRTDd2 control and the “[3H]CQ transport, non-expressing oocytes” value (non-expressing oocytes; 1 mM Ca2+, Experiment 3) was 3.27 % PfCRTDd2 control. The “[3H]CQ transport, non-expressing oocytes” value (non-expressing oocytes; 1 mM Ca2+, Experiment 4) was 3.32 % PfCRTDd2 control, the “[3H]CQ transport, non-expressing oocytes” value (non-expressing oocytes; 3 mM Ca2+, Experiment 1) was 3.39 % PfCRTDd2 control and the “[3H]CQ transport, non-expressing oocytes” value (non-expressing oocytes; 3 mM Ca2+, Experiment 2) was 3.63 % PfCRTDd2 control. The “[3H]CQ transport, non-expressing oocytes” value (non-expressing oocytes; 3 mM Ca2+, Experiment 3) was 3.89 % PfCRTDd2 control, the “[3H]CQ transport, non-expressing oocytes” value (non-expressing oocytes; 3 mM Ca2+, Experiment 4) was 3.96 % PfCRTDd2 control and the “[3H]CQ transport, non-expressing oocytes” value (non-expressing oocytes; 5 mM Ca2+, Experiment 1) was 3.68 % PfCRTDd2 control. The “[3H]CQ transport, non-expressing oocytes” value (non-expressing oocytes; 5 mM Ca2+, Experiment 2) was 3.26 % PfCRTDd2 control, the “[3H]CQ transport, non-expressing oocytes” value (non-expressing oocytes; 5 mM Ca2+, Experiment 3) was 3.94 % PfCRTDd2 control and the “[3H]CQ transport, non-expressing oocytes” value (non-expressing oocytes; 5 mM Ca2+, Experiment 4) was 3.67 % PfCRTDd2 control. For the same compound, the “[3H]CQ transport, non-expressing oocytes” value (non-expressing oocytes; Control, Experiment 1, Supp Fig. 2b) was 3.53 % PfCRTDd2 control, the “[3H]CQ transport, non-expressing oocytes” value (non-expressing oocytes; Control, Experiment 1, Supp Fig. 2f) was 3.93 % PfCRTDd2 control and the “[3H]CQ transport, non-expressing oocytes” value (non-expressing oocytes; Control, Experiment 1, Supp Fig. 2d) was 3.52 % PfCRTDd2 control. For the same compound, the “[3H]CQ transport, non-expressing oocytes” value (non-expressing oocytes; Control, Experiment 2, Supp Fig. 2b) was 3.62 % PfCRTDd2 control, the “[3H]CQ transport, non-expressing oocytes” value (non-expressing oocytes; Control, Experiment 2, Supp Fig. 2f) was 3.26 % PfCRTDd2 control and the “[3H]CQ transport, non-expressing oocytes” value (non-expressing oocytes; Control, Experiment 2, Supp Fig. 2d) was 3.16 % PfCRTDd2 control. For the same compound, the “[3H]CQ transport, non-expressing oocytes” value (non-expressing oocytes; Control, Experiment 3, Supp Fig. 2b) was 3.28 % PfCRTDd2 control, the “[3H]CQ transport, non-expressing oocytes” value (non-expressing oocytes; Control, Experiment 3, Supp Fig. 2f) was 3.29 % PfCRTDd2 control and the “[3H]CQ transport, non-expressing oocytes” value (non-expressing oocytes; Control, Experiment 3, Supp Fig. 2d) was 3.75 % PfCRTDd2 control. For the same compound, the “[3H]CQ transport, non-expressing oocytes” value (non-expressing oocytes; Control, Experiment 4, Supp Fig. 2b) was 3.81 % PfCRTDd2 control, the “[3H]CQ transport, non-expressing oocytes” value (non-expressing oocytes; Control, Experiment 4, Supp Fig. 2f) was 4.38 % PfCRTDd2 control and the “[3H]CQ transport, non-expressing oocytes” value (non-expressing oocytes; Control, Experiment 4, Supp Fig. 2d) was 3.21 % PfCRTDd2 control.
